The values below come from paper PMC11473290, “1,3,4-oxadiazoles as inhibitors of the atypical member of the BET family bromodomain factor 3 from Trypanosoma cruzi (TcBDF3)” (Frontiers in Microbiology, 2024).

Read-outs that look alike come from different tables or passages of the source.

Data set [1] has as its system T. cruzi Dm28c amastigotes. Put plainly: Beta-galactosidase assay, amastigotes in Vero cells. It counts as cell-based, Trypanosoma cruzi. Conditions: for SI (A), CC50/IC50 amastigotes: CC50 Vero cells / IC50; for IC50: Dm28c strain expressing β-galactosidase, 48 h postinfection of Vero cells, read-out: IC50 ± SD Amastigotes. The procedure: (§1) T. cruzi Dm28c that expresses the E. coli LacZ gene epimastigotes, trypomastigotes, and amastigotes were cultured and obtained as previously described ([Buckner et al., 1996]; [Alonso et al., 2021]). […] The controls included for the amastigotes (intracellular stage) were (a) uninfected cells and (b) infected with 1 μg/mL benznidazole (BZ) (positive control) and 1% DMSO to evaluate the toxicity of the solvent. For epimastigotes and trypomastigotes, the controls used were: 1-μg/ml benznidazole (BZ) (positive control) and 1% DMSO to evaluate solvent toxicity. Results obtained with this assay were verified by manually counting the parasites. The results were expressed as the percentage of inhibition of T. cruzi growth in compound-treated infected cells compared to untreated infected cells for amastigotes. For epimastigotes and trypomastigotes, treated and untreated cultured parasites were compared. Quadruplicates were run in the same microplate and repeated in three experiments. Half-maximal IC50 values were calculated using non-linear regression on GraphPad Prism 9.0, as previously described ([Alonso et al., 2021]).

Data set [2] has as its target T1, TcBDF3 (Trypanosoma cruzi, UniProt Q4DXV1). Put plainly: Fluorescence polarization (FP) assay, displacement of BSP-AF488 probe. The data set is classed as binding. The conditions noted are these: 0.5 μM BSP-AF488, 100-μM TcBDF3. The protocol:
FP measurement was performed on a Cary Eclipse spectrophotometer equipped with a polarizer at an excitation wavelength of 488 nm and an emission wavelength of […] in a 3-ml fluorescence cuvette. The essay was set at a final volume of 2 mL, 0.5 μM of BSP-AF488, 100-μM TcBDF3, phosphate pH = 8, glycerol 1%, and DMSO 0.5%. The FP values were plotted against the log of the compound concentrations in a non-linear regression model in GraphPad Prism 9.0 as previously described ([Zhang et al., 2002]). In this assay, A1B4, A1B4c, and A5B4c were used. Briefly, free and bound probes (BSP-AF488 in the presence of TcBDF3) were included in each replica. Since the intensity of the probe remains similar for all samples, the fraction of the probe bound to TcBDF3 is correlated to the mP value. Thus, the percentage of inhibition can be derived from the equation % inhibition =100[1 − (mP − mPf)/(mPb − mPf)], in which mPf is the free probe control and mPb is the bound probe control. Based on the percentage of inhibition, the inhibitory concentration (IC50), or the inhibitor concentration at which 50% of the bound probe is displaced, is obtained by fitting the inhibition data.

The target in data set [3] is T1, TcBDF3. Put plainly: Thermal shift assay (DSF), dissociation constants. It counts as binding. Conditions: full-length TcBDF3; SD from three independent experiments. The procedure:
The proteins were buffered in 10-mM HEPES, pH 7.5, and 500 mM NaCl and assayed in a 48-well plate at a final concentration of 2 μM in a volume of 20 μL. Compounds were added at a final concentration between 1 and 200 μM to calculate dissociation constants. In this assay, A1B4, A1B4c, A5B4 and A5B4c were used. SYPRO Orange (Invitrogen) was added as a fluorescence probe at a dilution of 1:1000. The excitation and emission filters for the SYPRO Orange dye were set at 465 and 590 nm, respectively. The temperature was increased with steps of 2°C/min from 25°C to 96°C, and fluorescence readings were taken at each interval in a CFX Opus 96 Real-Time System (Biorad) and analyzed using Maestro Software (Biorad). The melting curves and average melting temperature for each condition were obtained and plotted in temperature vs. concentration graphs in GraphPad Prism 9.0. Plots were fitted using the differential fluorescence scanning (DSF) single binding site equation to obtain the dissociation constants (Kd) in GraphPad Prism 9.0.

Data set [4] relates to T. cruzi Dm28c trypomastigotes. The data set is described as follows: Beta-galactosidase assay, trypomastigotes. It counts as cell-based, Trypanosoma cruzi. The conditions noted are these: for SI (T), CC50/IC50 trypomastigotes: CC50 Vero cells / IC50. The protocol: as §1
Data set [5] is described as follows: MTT assay, cell viability. The data set is classed as cell-based. The conditions noted are these: African green monkey, Vero cells. The procedure: The 3-(4,5-dimethylthiazol-2-yl)-2,5-diphenyltetrazolium bromide (MTT) reduction assay determined cell viability after treatment as previously described ([García et al., 2018]). Optical density (OD) was spectrophotometrically quantified (λ = 540 nm) using a Synergy HT multidetection microplate reader. DMSO was used as blank, and each treatment was performed in triplicates. The 50% cytotoxic concentration (CC50) values were calculated by non-linear regression on GraphPad Prism 9.0, and the selectivity indexes (SI) were determined as the ratio CC50/IC50 in all three life cycle stages.
Background: Formazan colour is commonly taken as a measure of viable cells.

Data set [6] has as its system T. cruzi Dm28c epimastigotes. The data set is described as follows: Beta-galactosidase assay, epimastigotes. It counts as cell-based, Trypanosoma cruzi. The conditions noted are these: for SI (E), CC50/IC50 epimastigotes: CC50 Vero cells / IC50; for IC50: Dm28c strain expressing β-galactosidase, read-out: IC50 ± SD Epimastigotes. The procedure: as §1
Data set [7] relates to T. cruzi Dm28c epimastigotes. Also on record: method as in García et al., 2018. The conditions noted are these: already published, ref García et al., 2018, cited from earlier work.
The target in data set [8] is T1, TcBDF3. Conditions: full-length TcBDF3; previously published; ref García et al., 2018; read-out: Kd ± SD DSF; cited from earlier work.
The next data set deals with Vero cells. More on the design: method as in García et al., 2018. Conditions: MTT; already published; ref García et al., 2018; cited from earlier work.
In data set [9] the test system is T. cruzi Dm28c amastigotes. More on the design: method as in García et al., 2018. Conditions: already published, ref García et al., 2018, cited from earlier work.
In data set [10] the test system is TcBD2 (recombinant bromodomain of TcBDF2). Put plainly: Tryptophan intrinsic fluorescence quenching assay. The conditions noted are these: 10-μM protein; 5, 10 and 20 μM compound; cut-off 0.9 normalized units. The data set is classed as binding, Trypanosoma cruzi. The procedure: (§2) 96-well black microplates with 10-μM recombinant proteins (TcBDF3, TcBDF3m, TcBD3, and TcBD2) and three concentrations of each compound were used (5, 10, and 20 μM). In this assay, A1B4 and iBET-151 (positive control) were used. All determinations were made from the top with an excitation wavelength of 275 and a 340/30 nm emission filter, 50 reads per well, and a PMT-sensitivity setting of 180 in a Synergy HT multidetection microplate reader equipped with time-resolved capable optics. Each condition was tested in triplicates, and normalized maximum fluorescence intensityvs. Concentration was plotted using GraphPad Prism 9.0. The relative fluorescence intensity obtained to the condition without the inhibitor was normalized.

Data set [11] has as its system TcBD3 (bromodomain of TcBDF3, amino acids 1-151). Put plainly: Tryptophan intrinsic fluorescence quenching assay. The data set is classed as binding, Trypanosoma cruzi. Conditions: 10-μM protein; 5, 10 and 20 μM compound; cut-off 0.9 normalized units. The procedure: as §2
Data set [12] has as its system TcBDF3m (Y123A and L130A). The data set is described as follows: Tryptophan intrinsic fluorescence quenching assay. It counts as binding, Trypanosoma cruzi. The conditions noted are these: 10-μM protein; 5, 10 and 20 μM compound; cut-off 0.9 normalized units. The procedure: as §2
Data set [13] concerns T. cruzi Dm28c trypomastigotes. More on the design: method as in García et al., 2018. Conditions: already published, ref García et al., 2018, cited from earlier work.

T1 sequence (Q4DXV1 entry or part of it): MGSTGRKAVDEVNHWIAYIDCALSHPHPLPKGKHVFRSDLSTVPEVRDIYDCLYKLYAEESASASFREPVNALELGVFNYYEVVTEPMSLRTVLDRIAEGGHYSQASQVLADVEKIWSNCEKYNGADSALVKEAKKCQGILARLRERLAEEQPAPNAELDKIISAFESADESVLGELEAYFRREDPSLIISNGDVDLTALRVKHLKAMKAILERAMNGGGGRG

One may read the IC50 as the concentration that gives 50% inhibition. A word on the Kd: it is a measure of binding affinity in units of concentration. Broadly, the CC50 is the concentration giving 50% cytotoxicity. With `OCc1ccc(-c2nnc(-c3cccs3)o2)o1` [A5B4c, (5-(5-(thiophene-2-yl)-1,3,4-oxadiazol-2-yl)furan-2-yl)methanol], the “SI (A), CC50/IC50 amastigotes” value in [1] was 37. Moreover, the IC50 in [1] (Trypanosoma cruzi, Vero, 48 h) was found to be 8.49 ± 1.63 µM; on TcBDF3 [2], 10.5 ± 0.9 µM; in data set [4] (Trypanosoma cruzi, Dm28c strain expressing β-galactosidase, read-out: IC50 ± SD Tripomastigotes), 13.4 ± 1.25 µM; in data set [6] (Trypanosoma cruzi), 14.8 ± 1.38 µM. For the same compound, the Kd at TcBDF3 [3] was 4.8 ± 0.2 µM. Moreover, in data set [4], the “SI (T), CC50/IC50 trypomastigotes” value is recorded as 23.5. For the same compound, the CC50 in [5] came out at 316 ± 4.35 µM. The “SI (E), CC50/IC50 epimastigotes” value in data set [6] is on record as 21.3.

What is called melting point is the temperature, or range, at which the solid turns liquid. Regarding `COc1cc(-c2nnc(-c3cccs3)o2)ccc1O` [A1B4c, 2-methoxy-4-(5-(thiophen-2-yl)-1,3,4-oxadiazol-2-yl)phenol], the melting point was found to be 224 °C. In data set [1], the “SI (A), CC50/IC50 amastigotes” value is 13 and the concentration for half-maximal inhibition (IC50) came out at 6.9 ± 0.67 µM. Also, the IC50 in data set [1] (Trypanosoma cruzi, Vero, 48 h) was under 10 µM. At TcBDF3 [2], this compound showed a half-inhibitory concentration (IC50) of 8.4 ± 0.5 µM. Also, the Kd on TcBDF3 [3] turned out to be 4 ± 0.3 µM. Moreover, the “SI (T), CC50/IC50 trypomastigotes” value in [4] amounted to 54.4. The CC50 in [5] was determined as 90.8 ± 3.54 µM. Besides, in data set [6], the “SI (E), CC50/IC50 epimastigotes” value is recorded as 11 and the half-inhibitory concentration (IC50) was determined as 8.13 ± 0.87 µM. Also, the concentration for half-maximal inhibition (IC50) in [6] (Trypanosoma cruzi) is under 10 µM.

Take `O=C(N/N=C/c1ccc(CO)o1)c1cccs1` [A5B4, (E/Z)-N′-((5-(hydroxymethyl)furan-2-yl)methylene) thiophene-2-carbohydrazide]: the dissociation constant (Kd) at TcBDF3 [3] is 136 ± 2.4 µM.

On to `COc1cc(/C=N/NC(=O)c2cccs2)ccc1O` [A1B4, (E)-N′-(4-hydroxy-3-methoxybenzylidene)thiophene-2-carbohydrazide], for which the half-inhibitory concentration (IC50) in data set [7] (Dm28c strain expressing β-galactosidase, read-out: IC50 ± SD Epimastigotes) is 23 ± 2.04 µM; at TcBDF3 [2] it was 2.4 ± 0.3 µM; in data set [9] (Dm28c strain expressing β-galactosidase, read-out: IC50 ± SD Amastigotes), 13.1 ± 1.43 µM; in [13] (Dm28c strain expressing β-galactosidase, read-out: IC50 ± SD Tripomastigotes) it was 17.8 ± 2.13 µM. Also, the “SI (E), CC50/IC50 epimastigotes” value in data set [7] is on record as 11.7. The Kd at TcBDF3 [8] was 1.7 ± 0.2 µM. Moreover, the CC50 with Vero cells is 269 ± 4.28 µM. Also, the “SI (A), CC50/IC50 amastigotes” value in data set [9] is 20.5. The “Binding (fluorescence quenching)” value in data set [10] is “did not bind”; in data set [11], “binds”; in data set [12], “did not bind”. For the same compound, in [13], the “SI (T), CC50/IC50 trypomastigotes” value is recorded as 15.
